Results on 17 molecules are retold here after US9234000B2, “Benzylamine derivatives as inhibitors of plasma kallikrein” (KalVista Pharmaceuticals Limited, priority 2011, dated 2016).

For one experiment, the target named is Human plasma kallikrein (Homo sapiens (Human), UniProt P03952). Briefly: Determination of the IC50 for plasma kallikrein. The note with it: 37° C., substrate H-DPro-Phe-Arg-AFC, read-out: IC50 (human PKal). The format is biochemical. Summed up:
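Residual activity (initial rate, absorbance at 410 nm) gave the IC50. Reactions at 37° C combined human plasma kallikrein, substrate H-DPro-Phe-Arg-AFC and a range of inhibitor concentrations.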

The target of another experiment is Human KLK1 (Homo sapiens (Human), UniProt P06870). The experiment can be described thus: Determination of the IC50 for KLK1. The format is biochemical. Particulars: Human KLK1, 37° C., substrate H-DVal-Leu-Arg-AFC; Table 13. An outline of the steps: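 Human KLK1 incubated at 37 °C with fluorogenic substrate H-DVal-Leu-Arg-AFC and a range of test compound concentrations. Residual activity was taken as initial reaction rate from absorbance change at 410 nm, and the IC50 derived from it.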
Sequence of Human KLK1 (P06870 25-262): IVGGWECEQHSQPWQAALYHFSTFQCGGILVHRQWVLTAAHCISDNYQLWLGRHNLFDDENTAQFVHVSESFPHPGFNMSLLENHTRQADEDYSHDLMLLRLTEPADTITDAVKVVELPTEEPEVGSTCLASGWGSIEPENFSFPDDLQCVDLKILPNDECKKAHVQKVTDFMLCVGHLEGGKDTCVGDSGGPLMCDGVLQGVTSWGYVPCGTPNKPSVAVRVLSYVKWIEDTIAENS

Sequence of Human plasma kallikrein (P03952 391-638): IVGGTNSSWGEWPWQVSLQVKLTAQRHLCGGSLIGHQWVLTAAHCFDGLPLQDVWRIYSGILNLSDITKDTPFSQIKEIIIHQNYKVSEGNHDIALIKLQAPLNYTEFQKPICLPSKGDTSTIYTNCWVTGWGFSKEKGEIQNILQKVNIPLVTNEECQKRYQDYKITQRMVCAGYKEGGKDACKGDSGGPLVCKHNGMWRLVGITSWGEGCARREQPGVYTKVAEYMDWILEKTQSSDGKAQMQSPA
Sequence of Human plasma kallikrein (P03952 20-390 partner): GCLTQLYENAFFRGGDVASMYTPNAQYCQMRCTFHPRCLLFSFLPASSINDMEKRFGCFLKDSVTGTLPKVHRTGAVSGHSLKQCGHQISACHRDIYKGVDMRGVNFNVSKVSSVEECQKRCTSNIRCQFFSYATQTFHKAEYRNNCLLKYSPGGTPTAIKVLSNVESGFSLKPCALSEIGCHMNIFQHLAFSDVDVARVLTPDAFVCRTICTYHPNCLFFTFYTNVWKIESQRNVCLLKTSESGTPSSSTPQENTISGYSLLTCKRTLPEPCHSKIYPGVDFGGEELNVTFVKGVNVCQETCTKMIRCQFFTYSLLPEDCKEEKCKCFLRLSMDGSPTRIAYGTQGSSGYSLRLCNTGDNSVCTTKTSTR

On to `CCOc1ccc(C[C@@H](NC(=O)c2ccccc2)C(=O)N[C@@H](Cc2ccc(Cl)cc2)C(=O)NCc2ccc(CN)cc2)cc1` [Example 142, N-[(R)-1-[(S)-1-(4-Aminomethyl-benzylcarbamoyl)-2-(4-chloro-phenyl)-ethylcarbamoyl]-2-(4-ethoxy-phenyl)-ethyl]-benzamide], for which the figures for the half-inhibitory concentration (IC50) on Human plasma kallikrein and at Human KLK1 were 96 nM and > 10000 nM, respectively.

In the case of `CCOc1ccc(C[C@@H](NC(=O)c2ccccc2)C(=O)N[C@@H](Cc2cccc(C(F)(F)F)c2)C(=O)NCc2ccc(CN)cc2)cc1` [Example 144, N-[(R)-1-[(S)-1-(4-Aminomethyl-benzylcarbamoyl)-2-(3-trifluoromethyl-phenyl)-ethylcarbamoyl]-2-(4-ethoxy-phenyl)-ethyl]-benzamide], the IC50 – broadly, the concentration at which inhibition is half-maximal – on Human plasma kallikrein is 340 nM; against Human KLK1, > 10000 nM.

As for `CCOc1ccc(C[C@@H](NC(=O)c2ccccc2)C(=O)N[C@@H](Cc2ccc(OC)cc2)C(=O)NCc2ccc(CN)cc2)cc1` [Example 146, N-[(R)-1-[(S)-1-(4-Aminomethyl-benzylcarbamoyl)-2-(4-methoxy-phenyl)-ethylcarbamoyl]-2-(4-ethoxy-phenyl)-ethyl]-benzamide], the IC50 is 232 nM at Human plasma kallikrein and > 10000 nM against Human KLK1.

Regarding `CCOc1ccc(C[C@@H](NC(=O)c2ccccc2)C(=O)N[C@@H](Cc2ccncc2)C(=O)NCc2ccc(CN)cc2)cc1` [Example 147, N-[(R)-1-[(S)-1-(4-Aminomethyl-benzylcarbamoyl)-2-pyridin-4-yl-ethylcarbamoyl]-2-(4-ethoxy-phenyl)-ethyl]-benzamide], the IC50 at Human plasma kallikrein was 284 nM; against Human KLK1, > 10000 nM.

For the molecule `CCOc1ccc(C[C@@H](NC(=O)c2ccccc2)C(=O)N[C@@H](Cc2ccc(C(F)(F)F)cc2)C(=O)NCc2ccc(CN)cc2)cc1` [Example 148, N-[(R)-1-[(S)-1-(4-Aminomethyl-benzylcarbamoyl)-2-(4-trifluoromethyl-phenyl)-ethylcarbamoyl]-2-(4-ethoxy-phenyl)-ethyl]-benzamide], the IC50 is 934 nM on Human plasma kallikrein and > 10000 nM at Human KLK1.

Regarding `CCOc1ccc(C[C@@H](NC(=O)c2ccccc2)C(=O)N[C@@H](Cc2cccc(F)c2)C(=O)NCc2ccc(CN)cc2)cc1` [Example 149, N-[(R)-1-[(S)-1-(4-Aminomethyl-benzylcarbamoyl)-2-(3-fluoro-phenyl)-ethylcarbamoyl]-2-(4-ethoxy-phenyl)-ethyl]-benzamide], the IC50 is 91 nM at Human plasma kallikrein and > 10000 nM against Human KLK1.

As for `CCOc1ccc(C[C@@H](NC(=O)c2ccccc2)C(=O)N[C@@H](Cc2ccccc2)C(=O)NCc2ccc(CN)c(C(F)(F)F)c2)cc1` [Example 156, N-[(R)-1-[(S)-1-(4-Aminomethyl-3-trifluoromethyl-benzylcarbamoyl)-2-phenyl-ethylcarbamoyl]-2-(4-ethoxy-phenyl)-ethyl]-benzamide], the IC50 is 1080 nM on Human plasma kallikrein and > 10000 nM on Human KLK1.

Turning to `CCOc1ccc(C[C@@H](NC(=O)c2ccncc2)C(=O)N[C@@H](Cc2ccc(F)c(F)c2)C(=O)NCc2ccc(CN)cc2)cc1` [Example 161, N-[(R)-1-[(S)-1-(4-Aminomethyl-benzylcarbamoyl)-2-(3,4-difluoro-phenyl)-ethylcarbamoyl]-2-(4-ethoxy-phenyl)-ethyl]-isonicotinamide], the IC50 is 49 nM on Human plasma kallikrein and 6900 nM on Human KLK1.

In the case of `CCOc1ccc(C[C@@H](NC(=O)c2ccc(Cl)cc2)C(=O)N[C@@H](Cc2ccccn2)C(=O)NCc2ccc(CN)cc2)cc1` [Example 163, N-[(R)-1-[(S)-1-(4-Aminomethyl-benzylcarbamoyl)-2-pyridin-2-yl-ethylcarbamoyl]-2-(4-ethoxy-phenyl)-ethyl]-4-chloro-benzamide], the IC50 is 64 nM on Human plasma kallikrein and > 10000 nM at Human KLK1.

Regarding `CCOc1ccc(C[C@@H](NC(=O)c2ccc(C)cc2)C(=O)N[C@@H](Cc2ccccn2)C(=O)NCc2ccc(CN)cc2)cc1` [Example 164, N-[(R)-1-[(S)-1-(4-Aminomethyl-benzylcarbamoyl)-2-pyridin-2-yl-ethylcarbamoyl]-2-(4-ethoxy-phenyl)-ethyl]-4-methyl-benzamide], the IC50 is 50 nM on Human plasma kallikrein and > 10000 nM against Human KLK1.

In the case of `CCOc1ccc(C[C@@H](NC(=O)c2ccccn2)C(=O)N[C@@H](Cc2ccc(Cl)c(Cl)c2)C(=O)NCc2ccc(CN)cc2)cc1` [Example 165, Pyridine-2-carboxylic acid [(R)-1-[(S)-1-(4-aminomethyl-benzylcarbamoyl)-2-(3,4-dichloro-phenyl)-ethylcarbamoyl]-2-(4-ethoxy-phenyl)-ethyl]-amide], the IC50 was 70 nM at Human plasma kallikrein and > 10000 nM against Human KLK1.

In the case of `CCOc1ccc(C[C@@H](NC(=O)CC)C(=O)N[C@@H](Cc2ccccn2)C(=O)NCc2ccc(CN)cc2)cc1` [Example 166, (R)-N-[(S)-1-(4-Aminomethyl-benzylcarbamoyl)-2-pyridin-2-yl-ethyl]-3-(4-ethoxy-phenyl)-2-propionylamino-propionamide], the IC50 on Human plasma kallikrein is 262 nM; at Human KLK1 it was > 10000 nM.

In the case of `CCOc1ccc(C[C@@H](NC(=O)c2ccncc2)C(=O)N[C@@H](Cc2ccccc2)C(=O)NCc2ccc(CN)c(F)c2)cc1` [Example 167, N-[(R)-1-[(S)-1-(4-Aminomethyl-3-fluoro-benzylcarbamoyl)-2-phenyl-ethylcarbamoyl]-2-(4-ethoxy-phenyl)-ethyl]-isonicotinamide], the IC50 on Human plasma kallikrein is 80 nM; against Human KLK1, > 10000 nM.

For the molecule `CCOc1ccc(C[C@@H](NC(=O)c2ccccn2)C(=O)N[C@@H](Cc2ccccc2)C(=O)NCc2ccc(CN)c(F)c2)cc1` [Example 168, Pyridine-2-carboxylic acid [(R)-1-[(S)-1-(4-aminomethyl-3-fluoro-benzylcarbamoyl)-2-phenyl-ethylcarbamoyl]-2-(4-ethoxy-phenyl)-ethyl]-amide], the figures for the IC50 at Human plasma kallikrein and on Human KLK1 were 76 nM and > 10000 nM, respectively.

On to `CCOc1ccc(C[C@@H](NC(=O)c2cccs2)C(=O)N[C@@H](Cc2ccc(Cl)c(Cl)c2)C(=O)NCc2ccc(CN)cc2)cc1` [Example 169, Thiophene-2-carboxylic acid [(R)-1-[(S)-1-(4-aminomethyl-benzylcarbamoyl)-2-(3,4-dichloro-phenyl)-ethylcarbamoyl]-2-(4-ethoxy-phenyl)-ethyl]-amide], for which the IC50 was found to be 44 nM at Human plasma kallikrein and 9900 nM on Human KLK1.

As for `CCOc1ccc(C[C@@H](NC(=O)CC)C(=O)N[C@@H](Cc2cccnc2)C(=O)NCc2ccc(CN)cc2)cc1` [Example 170, (R)-N-[(S)-1-(4-Aminomethyl-benzylcarbamoyl)-2-pyridin-3-yl-ethyl]-3-(4-ethoxy-phenyl)-2-propionylamino-propionamide], the results for the IC50 on Human plasma kallikrein and at Human KLK1 were 51 nM and > 10000 nM, respectively.

Consider `CCOc1ccc(C[C@@H](NC(=O)c2ccncc2)C(=O)N[C@@H](Cc2ccc(Cl)c(Cl)c2)C(=O)NCc2ccc(CN)cc2)cc1` [Example 171, N-[(R)-1-[(S)-1-(4-Aminomethyl-benzylcarbamoyl)-2-(3,4-dichloro-phenyl)-ethylcarbamoyl]-2-(4-ethoxy-phenyl)-ethyl]-isonicotinamide], for which the IC50 turned out to be 123 nM on Human plasma kallikrein and 9400 nM at Human KLK1.
